Assay [1] deals with EVSA-T (human breast carcinoma). Nature of the assay: Anti-proliferative activity, Alamar Blue assay, EVSA-T. It counts as cell-based. Particulars: Homo sapiens, EVSA-T; for EC50: 72 h.
Assay [2] addresses BIR3 domain of human cIAP-1 (residues 267-363) (Homo sapiens (Human), UniProt Q13490). Briefly: cIAP-1 in vitro competitive displacement binding assay (fluorescence polarization; Probe A AVPIK(5&6FAM)-amide or Probe B AbuRPFK(5&6FAM)-amide).
[3] abbreviates: 3 h, read-out: IC50 or PI cIAP1: PI.
The mark [4] stands for this setting: Probe A AVPIK(5&6FAM)-amide, read-out: IC50 or PI cIAP1: IC50.
The mark [5] stands for this setting: Probe B AbuRPFK(5&6FAM)-amide, read-out: IC50 or PI cIAP1: IC50.
The mark [6] stands for this setting: read-out: EC50, inhibition of cell growth.
The mark [7] stands for this setting: 3 h, Probe B, @ 0.012 μM, read-out: IC50 or PI cIAP1: PI.

SMILES strings stand for the structures. Structures can show the parent of a compound that is named as a salt. Where two headings read alike, the source gives them in different places.

On to `COC[C@H]1CN[C@H](C)CN1CC(=O)N1CC(C)(C)c2ccc(Cl)cc21` [Example 44, 1-(6-Chloro-3,3-dimethyl-2,3-dihydro-indol-1-yl)-2-((2R,5R)-2-methoxymethyl-5-methyl-piperazin-1-yl)-ethanone hydrochloride salt], for which the EC50 in assay [1] (read-out: EVSA-T prolif (EC50)) is 6600 nM.

In the case of `CCCC(F)(F)c1cnc2c(c1)N(C(=O)CN1C[C@@H](C)NC[C@@H]1CN1CCCC1=O)CC2(C)C` [Example 217, 1-{[(2R,5R)-1-{2-[6-(1,1-Difluorobutyl)-3,3-dimethyl-1H,2H,3H-pyrrolo[3,2-b]pyridin-1-yl]-2-oxoethyl}-5-methylpiperazin-2-yl]methyl}pyrrolidin-2-one hydrochloride], the EC50 in assay [1] (read-out: EVSA-T prolif (EC50)) was found to be 50 nM.

Turning to `C[C@@H]1CN(CC(=O)N2CC(C)(C)c3ncc(C(F)(F)c4ccccc4)cc32)[C@@H](CN2CCCC2=O)CN1` [Example 210, 1-{[(2R,5R)-1-(2-{6-[Difluoro(phenyl)methyl]-3,3-dimethyl-1H,2H,3H-pyrrolo[3,2-b]pyridin-1-yl}-2-oxoethyl)-5-methylpiperazin-2-yl]methyl}pyrrolidin-2-one hydrochloride], the EC50 in assay [1] (read-out: EVSA-T prolif (EC50)) came to 54 nM.

Take `C[C@@H]1CN(CC(=O)N2CC(C)(C)c3ncc(Cc4ccccc4F)cc32)[C@@H](CN2CC[C@@H](F)C2)CN1` [Example 250, 1-{6-[(2-Fluorophenyl)methyl]-3,3-dimethyl-1H,2H,3H-pyrrolo[3,2-b]pyridin-1-yl}-2-[(2R,5R)-2-{[(3R)-3-fluoropyrrolidin-1-yl]methyl}-5-methylpiperazin-1-yl]ethan-1-one dihydrochloride]: the inhibition at […] in assay [2] (setting [3]) was 89%. Moreover, the EC50 in assay [1] (read-out: EVSA-T prolif (EC50)) is 16 nM.

Turning to `C[C@@H]1CN(CC(=O)N2CCc3cnc(Cc4ccccc4)cc32)CCN1` [Example 35, 1-(6-Benzyl-2,3-dihydro-pyrrolo[3,2-c]pyridin-1-yl)-2-((R)-3-methyl-piperazin-1-yl)-ethanone hydrochloride salt], the concentration for half-maximal inhibition (IC50) in assay [2] was less than 1000 nM; in assay [2] (setting [4]) it was 960 nM. The inhibition at 10 µM in assay [1] (read-out: EVSA-T prolif: % inhibition) is 28%.

For the molecule `C[C@@H]1CN(CC(=O)N2CC(C)(C)c3ccc(Cc4ccccc4)cc32)[C@@H](CO)CN1` [Example 42, 1-(6-Benzyl-3,3-dimethyl-2,3-dihydro-indol-1-yl)-2-((2R,5R)-2-hydroxymethyl-5-methyl-piperazin-1-yl)-ethanone trifluoroacetate salt], the EC50 in assay [1] (read-out: EVSA-T prolif (EC50)) was found to be 2600 nM.

On to `COC[C@H]1CN[C@H](C)CN1CC(=O)N1CC(C)(C)c2cnc(CCC(C)C)cc21` [Example 75, 1-[3,3-Dimethyl-6-(3-methyl-butyl)-2,3-dihydro-pyrrolo[3,2-c]pyridin-1-yl]-2-((2R,5R)-2-methoxy-methyl-5-methyl-piperazin-1-yl)-ethanone], for which the EC50 in assay [1] (read-out: EVSA-T prolif (EC50)) worked out at 500 nM.

Regarding `CCC(F)(F)c1cnc2c(c1)N(C(=O)CN1C[C@@H](C)NC[C@@H]1CN1CCCC1=O)CC2(C)C` [Example 190, 1-{[(2R,5R)-1-{2-[6-(1,1-Difluoropropyl)-3,3-dimethyl-1H,2H,3H-pyrrolo[3,2-b]pyridin-1-yl]-2-oxoethyl}-5-methylpiperazin-2-yl]methyl}pyrrolidin-2-one hydrochloride], the IC50 in assay [2] (read-out: IC50 or PI cIAP1: IC50) was 29 nM. Moreover, the EC50 in assay [1] (read-out: EVSA-T prolif (EC50)) is 400 nM.

Regarding `COC[C@H]1CN[C@H](C)CN1CC(=O)N1CC(C)(C)c2cnc(Cc3cccc(C#N)c3)cc21` [Example 80, 3-[(1-{2-[(2R,5R)-2-(Methoxymethyl)-5-methylpiperazin-1-yl]acetyl}-3,3-dimethyl-1H,2H,3H-pyrrolo[3,2-c]pyridin-6-yl)methyl]benzonitrile hydrochloride salt], the half-inhibitory concentration (IC50) in assay [2] (setting [5]) stood at 33 nM. The EC50 in assay [1] (read-out: EVSA-T prolif (EC50)) is 780 nM.

Regarding `COC[C@H]1CN[C@H](C)CN1CC(=O)N1CC(C)(C)c2cc(-c3nc(C)no3)c(Cl)cc21` [Example 141, 1-[6-Chloro-3,3-dimethyl-5-(3-methyl-1,2,4-oxadiazol-5-yl)-2,3-dihydro-1H-indol-1-yl]-2-[(2R,5R)-2-(methoxymethyl)-5-methylpiperazin-1-yl]ethan-1-one], the IC50 in assay [2] (setting [5]) was found to be 280 nM. Also, the EC50 in assay [1] (setting [6]) was less than 10000 nM; in assay [1] (read-out: EVSA-T prolif (EC50)), 9000 nM.

Turning to `C[C@@H]1CN(CC(=O)N2CC(C)(C)c3cnc(C(C)(F)F)cc32)[C@@H](CN2CCCC2=O)CN1` [Example 184, dihydrochloride], the IC50 in assay [2] was less than 1000 nM; in assay [2] (setting [5]) it was 31 nM. Further, in assay [1] (read-out: EVSA-T prolif (EC50)), the EC50 stood at 650 nM.

For the molecule `CC(C)CC(F)(F)c1cnc2c(c1)N(C(=O)CN1C[C@@H](C)NC[C@@H]1CN1CCCC1=O)CC2(C)C` [Example 216, 1-{[(2R,5R)-1-{2-[6-(1,1-Difluoro-3-methylbutyl)-3,3-dimethyl-1H,2H,3H-pyrrolo[3,2-b]pyridin-1-yl]-2-oxoethyl}-5-methylpiperazin-2-yl]methyl}pyrrolidin-2-one dihydrochloride], the inhibition at […] in assay [2] (setting [3]) turned out to be 68%. The EC50 in assay [1] (read-out: EVSA-T prolif (EC50)) stood at 51 nM.

With `C[C@@H]1CN(CC(=O)N2CC(C)(COCc3ccccc3)c3cnc(Cc4ccccc4)cc32)[C@@H](C(=O)N(C)C)CN1` (stereo partly drawn) [Example 104, (2R,5R)-1-(2-{6-Benzyl-3-[(benzyloxy)methyl]-3-methyl-1H,2H,3H-pyrrolo[3,2-c]pyridin-1-yl}-2-oxoethyl)-N,N,5-trimethylpiperazine-2-carboxamide, hydrochloride salt], the inhibition at 0.01 µM in assay [2] (3 h, Probe B, @ 0.01 μM, read-out: IC50 or PI cIAP1: PI) worked out at 71%. In addition, in assay [1] (read-out: EVSA-T prolif (EC50)), the EC50 was 490 nM.

With `CCCC(F)(F)c1cnc2c(c1)N(C(=O)CN1C[C@@H](C)NC[C@@H]1CN1CCOCC1)CC2(C)C` [Example 238, 1-[6-(1,1-Difluorobutyl)-3,3-dimethyl-1H,2H,3H-pyrrolo[3,2-b]pyridin-1-yl]-2-[(2R,5R)-5-methyl-2-(morpholin-4-ylmethyl)piperazin-1-yl]ethan-1-one hydrochloride], the inhibition at […] in assay [2] (setting [7]) was found to be 69%. Moreover, in assay [1] (read-out: EVSA-T prolif (EC50)), the EC50 was 68 nM.

For the molecule `C[C@@H]1CN(CC(=O)N2CC(C)(C)c3cnc(Cc4ccc(F)cc4F)cc32)[C@@H](CN2CCCC2=O)CN1` [Example 179, 1-{[(2R,5R)-1-(2-{6-[(2,4-Difluorophenyl)methyl]-3,3-dimethyl-1H,2H,3H-pyrrolo[3,2-c]pyridin-1-yl}-2-oxoethyl)-5-methylpiperazin-2-yl]methyl}pyrrolidin-2-one hydrochloride], in assay [2] (setting [7]), the inhibition at […] amounted to 97%. For the same molecule, the EC50 in assay [1] (read-out: EVSA-T prolif (EC50)) was determined as 4.4 nM.

Turning to `COC[C@H]1CN[C@H](C)CN1CC(=O)N1CC(C)(C)c2cnc(Cc3cccc(OC)c3)cc21` [Example 89, 2-[(2R,5R)-2-(Methoxymethyl)-5-methylpiperazin-1-yl]-1-{6-[(3-methoxyphenyl)methyl]-3,3-dimethyl-1H,2H,3H-pyrrolo[3,2-c]pyridin-1-yl}ethan-1-one, hydrochloride salt], in assay [2] (setting [5]), the IC50 came to 16 nM. In assay [1] (read-out: EVSA-T prolif (EC50)), the EC50 amounted to 990 nM.

In the case of `COC[C@H]1CN[C@H](C)CN1CC(=O)N1CC(C)(C)c2cnc(C(OC)c3ccccc3)cc21` (stereo partly drawn) [Example 132, 1-{6-[Methoxy(phenyl)methyl]-3,3-dimethyl-1H,2H,3H-pyrrolo[3,2-c]pyridin-1-yl}-2-[(2R,5R)-2-(methoxymethyl)-5-methylpiperazin-1-yl]ethan-1-one dihydrochloride], the EC50 in assay [1] (read-out: EVSA-T prolif (EC50)) was determined as 660 nM.

As to `COC[C@H]1CN[C@H](C)CN1CC(=O)N1CC(C)(C)c2cnc(Cl)cc21` [Example 62, 1-(6-Chloro-3,3-dimethyl-2,3-dihydro-pyrrolo[3,2-c]pyridin-1-yl)-2-((2R,5R)-2-methoxy-methyl-5-methyl-piperazin-1-yl)-ethanone hydrochloride salt], in assay [1] (read-out: EVSA-T prolif (EC50)), the concentration giving a half-maximal response (EC50) amounted to 3800 nM.

Regarding `C[C@@H]1CN(CC(=O)N2CC(C)(C)c3ncc(Cc4ccc(F)cc4)cc32)[C@@H](CN2CC[C@@H](F)C2)CN1` [Example 241, 1-{6-[(4-Fluorophenyl)methyl]-3,3-dimethyl-1H,2H,3H-pyrrolo[3,2-b]pyridin-1-yl}-2-[(2R,5R)-2-{[(3R)-3-fluoropyrrolidin-1-yl]methyl}-5-methylpiperazin-1-yl]ethan-1-one dihydrochloride], the inhibition at […] in assay [2] (setting [3]) was determined as 98%. Also, in assay [1] (read-out: EVSA-T prolif (EC50)), the 50% effective concentration (EC50) is 7.2 nM.

For `C[C@@H]1CN(CC(=O)N2CC(C)(C)c3cnc(Cc4ccccc4)cc32)[C@@H](C(=O)N(C)C)CN1` [Example 99, (2R,5R)-1-(2-{6-Benzyl-3,3-dimethyl-1H,2H,3H-pyrrolo[3,2-c]pyridin-1-yl}-2-oxoethyl)-N,N,5-trimethylpiperazine-2-carboxamide, hydrochloride salt], the IC50 in assay [2] (setting [5]) was determined as 12 nM. In addition, in assay [1] (read-out: EVSA-T prolif (EC50)), the EC50 came to 180 nM.

`C[C@@H]1CN(CC(=O)N2CC(C)(C)c3cnc(Cc4ccc(F)cc4F)cc32)[C@@H](CN2CCCC2)CN1` [Example 220, 1-{6-[(2,4-Difluorophenyl)methyl]-3,3-dimethyl-1H,2H,3H-pyrrolo[3,2-c]pyridin-1-yl}-2-[(2R,5R)-5-methyl-2-(pyrrolidin-1-ylmethyl)piperazin-1-yl]ethan-1-one dihydrochloride]: the EC50 in assay [1] (read-out: EVSA-T prolif (EC50)) was 49 nM.

With `C[C@@H]1CN(CC(=O)N2CCc3ccc(Cc4ccccc4)cc32)CCN1` [Example 29, 1-(6-Benzyl-2,3-dihydro-indol-1-yl)-2-((R)-3-methyl-piperazin-1-yl)-ethanone hydrochloride salt], the IC50 in assay [2] was less than 10000 nM; in assay [2] (setting [4]), 1400 nM. Further, the EC50 in assay [1] (setting [6]) was less than 10000 nM; in assay [1] (read-out: EVSA-T prolif (EC50)), 4600 nM.

With `CC(C)CC(F)(F)c1cnc2c(c1)N(C(=O)CN1C[C@@H](C)NC[C@@H]1CN1CCOCC1)CC2(C)C` [Example 235, 1-[6-(1,1-Difluoro-3-methylbutyl)-3,3-dimethyl-1H,2H,3H-pyrrolo[3,2-b]pyridin-1-yl]-2-[(2R,5R)-5-methyl-2-(morpholin-4-ylmethyl)piperazin-1-yl]ethan-1-one], the EC50 in assay [1] (read-out: EVSA-T prolif (EC50)) was 31 nM.
